Reference: the Kinase Knowledgebase extract (Sharma et al. 2016)
pIC50: −log10 of the molar value. “And” between values parts separate entries of the source, which are not always exact repeats. Equal entries are not always repeated.

Target: CDK2 (human) (UniProt P24941)
Experiment: Enzyme Assay

| pIC50 | Structure (SMILES) |
| --- | --- |
| 6.17 and 6.66 and 6.29 | N[C@H]1CC[C@H](Nc2nc(NC3CCN(Cc4cc(F)ccc4F)CC3)c3ncn(C4CCCC4)c3n2)CC1 |
| 6.85 and 6.52 and 6.47 | COc1cccc(CN2CCC(Nc3nc(N[C@H]4CC[C@H](N)CC4)nc4c3ncn4C3CCCC3)CC2)c1 |
| 5.77 | N[C@H]1CC[C@H](Nc2nc(NC3CCN(Cc4ccc(F)cc4)CC3)c3ncn(C4CCCC4)c3n2)CC1 |
| 6.62 and 6.96 and 7.10 | COc1ccccc1CN1CCC(Nc2nc(N[C@H]3CC[C@H](N)CC3)nc3c2ncn3C2CCCC2)CC1 |
| 8.27 | N[C@H]1CC[C@H](Nc2nc(Nc3ccccc3)c3ncn(C4CCCC4)c3n2)CC1 |
| 6.77 and 6.64 | Cc1ccc(CN2CCC(Nc3nc(N[C@H]4CC[C@H](N)CC4)nc4c3ncn4C3CCCC3)CC2)cc1 |
| 6.92 and 6.49 | Cc1ccc(CN2CCC(Nc3nc(N[C@H]4CC[C@H](N)CC4)nc4c3ncn4C3CCCC3)CC2)cc1Cl |
